Each structure is given as a SMILES string.

These results are taken from patent US20260317324A1, “BIFUNCTIONAL COMPOUNDS FOR DEGRADING BRAF VIA UBIQUITIN PROTEOSOME PATHWAY” (Nurix Therapeutics, Inc., priority 2023, published 2026).

Common to all, as to format: cell-based
Assay [1] deals with T1, BRAF G466V (Homo sapiens, UniProt P15056, G466V).
T1 construct: Horizon Discovery (HCT-116 BRAF−/− cells); host or cells: HCT-116 BRAF−/− cells, clone 8, lentiviral transduction
Briefly: BRAF HiBiT degradation assay, C-terminal HiBiT-tagged BRAF G466V overexpressed in HCT-116 BRAF−/− cells (clone 8), Nano-Glo HiBiT Lytic assay. The method in brief:
(§1)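 First, the stable HiBiT-tagged cells were plated and incubated for 24 h. Next, compound was added in duplicate as an 11-point series with a 1 μM top concentration. Lytic detection followed, with DMSO-treated parental cells used for background. Finally, DC50 and Obs. Dmax relative to DMSO were derived from the % protein remaining curves.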
(HiBiT is a short tag that completes a luciferase, so light tracks the accessible tagged protein.)

In assay [2] the target is T2, BRAF V600E (Homo sapiens, UniProt P15056, V600E).
T2 construct: endogenous C-terminal HiBiT fusion tag on BRAF V600E allele; endogenous in cells; host or cells: A375 clone 1F10 (CRISPR-Cas9 knock-in of the HiBiT tag; parental A375 from ATCC)
Briefly: BRAF HiBiT degradation assay, C-terminal HiBiT-tagged BRAF V600E A375 cells (clone 1F10), Nano-Glo HiBiT Lytic assay. To be noted: for Dmax: A-375. The method in brief:
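Degradation is measured as loss of HiBiT signal from BRAF V600E tagged at its native locus in A375 cells. Doses span 1 μM to 0.01 nM in half-log steps, in duplicate. Percent remaining is calculated against DMSO controls after subtracting untagged A375 background, and curve fitting yields DC50 and observed Dmax.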

Assay [3] deals with T3, BRAF G469A (Homo sapiens, UniProt P15056, G469A).
T3 construct: Horizon Discovery (HCT-116 BRAF−/− cells); host or cells: HCT-116 BRAF−/− cells, clone 34, lentiviral transduction
Briefly: BRAF HiBiT degradation assay, C-terminal HiBiT-tagged BRAF G469A overexpressed in HCT-116 BRAF−/− cells (clone 34), Nano-Glo HiBiT Lytic assay. An outline of the steps: as §1

Assay [4] addresses T4, BRAF D594G (Homo sapiens, UniProt P15056, D594G).
T4 construct: Horizon Discovery (HCT-116 BRAF−/− cells); host or cells: HCT-116 BRAF−/− cells, clone 63, lentiviral transduction
Briefly: BRAF HiBiT degradation assay, C-terminal HiBiT-tagged BRAF D594G overexpressed in HCT-116 BRAF−/− cells (clone 63), Nano-Glo HiBiT Lytic assay. An outline of the steps:
as §1

Setting [5] is: BRAF G466V, DC50 at 50%: fitted conc. at Y=50.
Setting [6] is: HCT-116, BRAF G466V, percentage protein degraded at maximal compound effect relative to DMSO.
Setting [7] is: A375 (BRAF V600E), DC50 at 50%: fitted conc. at Y=50.
Setting [8] is: A375 (BRAF V600E), percentage protein degraded at maximal compound effect relative to DMSO.
Where [9] appears, read: Class 2, BRAF G469A, DC50 at 50%: fitted conc. at Y=50.
Setting [10] is: HCT-116, Class 2, BRAF G469A, percentage protein degraded at maximal compound effect relative to DMSO.
The mark [11] stands for this setting: BRAF D594G, DC50 at 50%: fitted conc. at Y=50.
The mark [12] stands for this setting: HCT-116, BRAF D594G, percentage protein degraded at maximal compound effect relative to DMSO.
Where [13] appears, read: BRAF G466V (Class 3), HCT-116 BRAF−/− cells, DC50 at 50% degradation.
The mark [14] stands for this setting: BRAF G466V (Class 3), HCT-116 BRAF−/− cells, observed Dmax relative to DMSO control.
The mark [15] stands for this setting: A375 (BRAF V600E, Class 1), DC50 at 50% degradation.
[16] abbreviates: A375 (BRAF V600E, Class 1), observed Dmax, % protein degraded relative to DMSO control.
Where [17] appears, read: BRAF G469A (Class 2), HCT-116 BRAF−/− cells, DC50 at 50% degradation.
[18] abbreviates: BRAF G469A (Class 2), HCT-116 BRAF−/− cells, observed Dmax relative to DMSO control.
Where [19] appears, read: BRAF D594G (Class 3), HCT-116 BRAF−/− cells, DC50 at 50% degradation.
The mark [20] stands for this setting: BRAF D594G (Class 3), HCT-116 BRAF−/− cells, observed Dmax relative to DMSO control.

T4 sequence (P15056 whole entry D594G): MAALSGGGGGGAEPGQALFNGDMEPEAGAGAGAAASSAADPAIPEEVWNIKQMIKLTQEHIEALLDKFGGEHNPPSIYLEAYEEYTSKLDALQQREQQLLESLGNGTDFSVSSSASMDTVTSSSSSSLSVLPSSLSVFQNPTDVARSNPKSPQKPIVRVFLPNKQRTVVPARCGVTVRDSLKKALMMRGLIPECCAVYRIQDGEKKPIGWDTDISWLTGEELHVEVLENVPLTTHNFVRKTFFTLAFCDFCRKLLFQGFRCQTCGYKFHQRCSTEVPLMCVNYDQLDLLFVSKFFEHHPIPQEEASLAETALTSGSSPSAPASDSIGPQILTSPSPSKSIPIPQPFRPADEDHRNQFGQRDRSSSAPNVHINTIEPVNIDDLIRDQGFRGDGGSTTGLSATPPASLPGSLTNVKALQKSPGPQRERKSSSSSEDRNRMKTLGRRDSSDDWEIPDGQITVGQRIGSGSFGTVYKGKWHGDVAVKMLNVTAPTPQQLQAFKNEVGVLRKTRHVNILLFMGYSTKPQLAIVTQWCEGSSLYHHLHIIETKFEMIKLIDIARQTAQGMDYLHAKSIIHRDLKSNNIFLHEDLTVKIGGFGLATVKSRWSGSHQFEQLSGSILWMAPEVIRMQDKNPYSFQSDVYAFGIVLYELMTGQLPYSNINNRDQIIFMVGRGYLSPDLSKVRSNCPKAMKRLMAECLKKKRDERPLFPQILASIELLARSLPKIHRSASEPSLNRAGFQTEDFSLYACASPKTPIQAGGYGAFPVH
T2 sequence (P15056 whole entry V600E, the tested form may be a part): as the sequence (P15056 whole entry D594G) above, with G594D, V600E counted along it
T1 sequence (P15056 whole entry G466V): as the sequence (P15056 whole entry D594G) above, with G466V, G594D counted along it
T3 sequence (P15056 whole entry G469A): as the sequence (P15056 whole entry D594G) above, with G469A, G594D counted along it

Usually DC50 stands for the concentration at which degradation of the target reaches its halfway point. High values mean degradation only at high concentration, low ones degradation at low concentration. One may read the Dmax as the largest share of the target that was removed. Read a low Dmax as a partial loss of target. Regarding `CCCS(=O)(=O)Nc1cccc(-c2nc(C(C)(C)C)sc2-c2ccnc(Nc3cccc(OC4CCN(C[C@H]5CC[C@H](Oc6ccc(C7CCC(=O)NC7=O)cc6)CC5)CC4)c3)n2)c1F` (mixture of isomers) [Compound 72, N-(3-(2-(tert-butyl)-5-(2-((3-((1-(((1R,4r)-4-(4-((RS)-2,6-dioxopiperidin-3-yl)phenoxy)cyclohexyl)methyl)piperidin-4-yl)oxy)phenyl)amino)pyrimidin-4-yl)thiazol-4-yl)-2-fluorophenyl)propane-1-sulfonamide], the DC50 in assay [1] (setting [5]) is above 500 nM; in assay [2] (setting [7]), 10 to 50 nM; in assay [3] (setting [9]), above 500 nM; in assay [4] (setting [11]), above 500 nM. For the same molecule, the Dmax in assay [1] (setting [6]) was 30 to 70%; in assay [2] (setting [8]) it was 30 to 70%; in assay [3] (setting [10]), below 30%; in assay [4] (setting [12]), 30 to 70%.
As to `CCCS(=O)(=O)Nc1cccc(-c2nc(C)sc2-c2ccnc(Nc3ccc(C4CCN(C(=O)CC5CCN(c6ccc(NC7CCC(=O)NC7=O)cc6)CC5)CC4)cc3)n2)c1F` (racemic) [Compound 44, Rac-N-{3-[5-(2-{[4-(1-{2-[1-(4-{[(3R)-2,6-dioxopiperidin-3-yl]amino}phenyl)piperidin-4-yl]acetyl}piperidin-4-yl)phenyl]amino}pyrimidin-4-yl)-2-methyl-1,3-thiazol-4-yl]-2-fluorophenyl}propane-1-sulfonamide], the DC50 in assay [1] (setting [5]) is above 500 nM; in assay [2] (setting [7]), below 10 nM; in assay [3] (setting [9]), above 500 nM; in assay [4] (setting [11]), above 500 nM. Further, the Dmax in assay [1] (setting [6]) was below 30%; in assay [2] (setting [8]) it was above 70%; in assay [3] (setting [10]) it was below 30%; in assay [4] (setting [12]), below 30%.
As to `CCCS(=O)(=O)Nc1cccc(-c2nc(C3CCN(C(=O)C4CCN(C(=O)C5CCN(c6ccc(C7CCC(=O)NC7=O)cn6)CC5)CC4)CC3)sc2-c2ccnc(N)n2)c1F` (racemic) [Compound 254, Rac-N-{3-[5-(2-aminopyrimidin-4-yl)-2-{1-[1-(1-{5-[(3R)-2,6-dioxopiperidin-3-yl]pyridin-2-yl}piperidine-4-carbonyl)piperidine-4-carbonyl]piperidin-4-yl}-1,3-thiazol-4-yl]-2-fluorophenyl}propane-1-sulfonamide], the DC50 is below 10 nM in assay [1] (setting [13]), below 10 nM in assay [2] (setting [15]), 10 to 50 nM in assay [3] (setting [17]) and below 10 nM in assay [4] (setting [19]). Moreover, the Dmax in assay [1] (setting [14]) is above 70%; in assay [2] (setting [16]), above 70%; in assay [3] (setting [18]), 30 to 70%; in assay [4] (setting [20]), 30 to 70%.
As to `O=C1CC[C@H](c2ccc(N3CCC(CN4CCN(c5ccc(-n6cc(-c7cc(Cl)cc(NS(=O)(=O)N8CC[C@@H](F)C8)c7F)c(-c7ccncc7)n6)c(F)c5)CC4)CC3)cc2)C(=O)N1` [Compound 336, (3R)—N-{5-chloro-3-[1-(4-{4-[(1-{4-[(3R)-2,6-dioxopiperidin-3-yl]phenyl}piperidin-4-yl)methyl]piperazin-1-yl}-2-fluorophenyl)-3-(pyridin-4-yl)-1H-pyrazol-4-yl]-2-fluorophenyl}-3-fluoropyrrolidine-1-sulfonamide], the DC50 in assay [1] (setting [13]) was below 10 nM; in assay [2] (setting [15]), below 10 nM; in assay [3] (setting [17]), 10 to 50 nM; in assay [4] (setting [19]) it was below 10 nM. For the same molecule, the Dmax in assay [1] (setting [14]), in assay [2] (setting [16]), in assay [3] (setting [18]) and in assay [4] (setting [20]) was above 70% in each case.
In the case of `O=C1CC[C@H](c2ccc(N3CCC(CN4CCN(c5ccc(-n6cc(-c7cc(C(F)F)cc(NS(=O)(=O)N8CCCC8)c7F)c(-c7ccncc7)n6)cc5)CC4)CC3)cc2)C(=O)N1` [Compound 349, N-[5-(difluoromethyl)-3-[1-(4-{4-[(1-{4-[(3R)-2,6-dioxopiperidin-3-yl]phenyl}piperidin-4-yl)methyl]piperazin-1-yl}phenyl)-3-(pyridin-4-yl)-1H-pyrazol-4-yl]-2-fluorophenyl]pyrrolidine-1-sulfonamide], the DC50 in assay [1] (setting [13]), in assay [2] (setting [15]), in assay [3] (setting [17]) and in assay [4] (setting [19]) was below 10 nM throughout. Also, the Dmax in assay [1] (setting [14]), in assay [2] (setting [16]), in assay [3] (setting [18]) and in assay [4] (setting [20]) was above 70% throughout.
With `CCCS(=O)(=O)Nc1cccc(-c2nc(C(C)(C)C)sc2-c2ccnc(NCC3CCN(CC4CCN(c5ccc(C(=O)N[C@H]6CCC(=O)NC6=O)nc5)CC4)CC3)n2)c1F` [Compound 147, 5-{4-[(4-{[(4-{2-tert-butyl-4-[2-fluoro-3-(propane-1-sulfonamido)phenyl]-1,3-thiazol-5-yl}pyrimidin-2-yl)amino]methyl}piperidin-1-yl)methyl]piperidin-1-yl}-N-[(3S)-2,6-dioxopiperidin-3-yl]pyridine-2-carboxamide], the DC50 in assay [1] (setting [5]) was above 500 nM; in assay [2] (setting [7]), 50 to 500 nM; in assay [3] (setting [9]) it was above 500 nM; in assay [4] (setting [11]), above 500 nM. The Dmax is below 30% in assay [1] (setting [6]), 30 to 70% in assay [2] (setting [8]), below 30% in assay [3] (setting [10]) and below 30% in assay [4] (setting [12]).
Consider `O=C1CCN(c2ccc(N3CCC(CN4CCN(c5ccc(-n6cc(-c7cc(Cl)cc(NS(=O)(=O)N8CCCC8)c7F)c(-c7ccncc7)n6)c(F)c5)CC4)CC3)nc2)C(=O)N1` [Compound 370, N-[5-chloro-3-(1-{4-[4-({1-[5-(2,4-dioxo-1,3-diazinan-1-yl)pyridin-2-yl]piperidin-4-yl}methyl)piperazin-1-yl]-2-fluorophenyl}-3-(pyridin-4-yl)-1H-pyrazol-4-yl)-2-fluorophenyl]pyrrolidine-1-sulfonamide], for which the half-maximal degradation concentration (DC50) in assay [1] (setting [13]) was below 10 nM; in assay [2] (setting [15]), below 10 nM; in assay [3] (setting [17]), above 500 nM; in assay [4] (setting [19]) it was below 10 nM. For the same molecule, the Dmax was 30 to 70% in assay [1] (setting [14]), above 70% in assay [2] (setting [16]), 30 to 70% in assay [3] (setting [18]) and 30 to 70% in assay [4] (setting [20]).
Regarding `CCN(C)S(=O)(=O)Nc1cc(F)cc(-c2cn(-c3ccc(N4CCN(CC5CCN(c6ccc(C7CCC(=O)NC7=O)cn6)CC5)CC4)cc3)nc2-c2ccncc2)c1F` (racemic) [Compound 376, Rac-(3R)-3-(6-{4-[(4-{4-[4-(3-{[ethyl(methyl)sulfamoyl]amino}-2,5-difluorophenyl)-3-(pyridin-4-yl)-1H-pyrazol-1-yl]phenyl}piperazin-1-yl)methyl]piperidin-1-yl}pyridin-3-yl)piperidine-2,6-dione], the DC50 in assay [1] (setting [13]) was below 10 nM; in assay [2] (setting [15]) it was below 10 nM; in assay [3] (setting [17]) it was 10 to 50 nM; in assay [4] (setting [19]), below 10 nM. For the same molecule, the Dmax in assay [1] (setting [14]) was above 70%; in assay [2] (setting [16]) it was above 70%; in assay [3] (setting [18]), 30 to 70%; in assay [4] (setting [20]), above 70%.
On to `CCN(C)S(=O)(=O)Nc1cc(Cl)cc(-c2cn(-c3ccc(N4CCN(CC5CCN(c6ccc([C@H]7CCC(=O)NC7=O)cn6)CC5)CC4)cc3)nc2-c2ccncc2)c1F` [Compound 309, (3R)-3-(6-{4-[(4-{4-[4-(5-chloro-3-{[ethyl(methyl)sulfamoyl]amino}-2-fluorophenyl)-3-(pyridin-4-yl)-1H-pyrazol-1-yl]phenyl}piperazin-1-yl)methyl]piperidin-1-yl}pyridin-3-yl)piperidine-2,6-dione], for which the DC50 is below 10 nM in assay [1] (setting [13]), below 10 nM in assay [2] (setting [15]), 10 to 50 nM in assay [3] (setting [17]) and below 10 nM in assay [4] (setting [19]). In addition, the Dmax in assay [1] (setting [14]) was above 70%; in assay [2] (setting [16]), above 70%; in assay [3] (setting [18]), above 70%; in assay [4] (setting [20]), 30 to 70%.
